# Test system: MV-4-11 cells
# Test: Gene expression microarray analysis (Affymetrix PrimeView) and GSEA
# Assay type: cell-based, human
# Set-up: RFU PODN (11730768_x_at) / Fold change /veh PODN (11730768_x_at) / RFU LINC00158 (11744669_a_at) / Fold change /veh LINC00158 (11744669_a_at) / RFU DUSP10 (11751237_a_at) / Fold change /veh DUSP10 (11751237_a_at) / RFU ID3 (11757404_x_at) / Fold change /veh ID3 (11757404_x_at) / RFU PLEKHG5 (11737974_s_at) / Fold change /veh PLEKHG5 (11737974_s_at) / RFU LRRC4B (11730491_at) / Fold change /veh LRRC4B (11730491_at) / RFU GIMAP4 (11747438_a_at) / Fold change /veh GIMAP4 (11747438_a_at) / RFU KRT8 (11758183_x_at) / Fold change /veh KRT8 (11758183_x_at) / RFU CNN1 (11734310_a_at) / Fold change /veh CNN1 (11734310_a_at) / RFU VPS37D (11726825_at) / Fold change /veh VPS37D (11726825_at) / RFU C10orf10 (11716522_x_at) / Fold change /veh C10orf10 (11716522_x_at) / RFU KIR2DL2 /// KIR2DL4 /// KIR2DL5A /// KIR2DL5B /// KIR2DS1 /// KIR2DS2 /// KIR2DS3 /// KIR2DS4 /// KIR3DL3 /// KIR3DL3 /// KIR3DS1 (11738374_at) / Fold change /veh KIR2DL2 /// KIR2DL4 /// KIR2DL5A /// KIR2DL5B /// KIR2DS1 /// KIR2DS2 /// KIR2DS3 /// KIR2DS4 /// KIR3DL3 /// KIR3DL3 /// KIR3DS1 (11738374_at) / RFU C1QL1 (11718748_at) / Fold change /veh C1QL1 (11718748_at) / RFU TMPRSS4 (11747572_a_at) / Fold change /veh TMPRSS4 (11747572_a_at) / RFU HAMP (11756126_x_at) / Fold change /veh HAMP (11756126_x_at) / RFU RNFT2 (11725882_a_at) / Fold change /veh RNFT2 (11725882_a_at) / RFU NR4A2 (11747474_a_at) / Fold change /veh NR4A2 (11747474_a_at) / RFU ABCC12 (11746883_a_at) / Fold change /veh ABCC12 (11746883_a_at) / RFU TMEM136 (11760407_x_at) / Fold change /veh TMEM136 (11760407_x_at) / RFU CLDN22 /// WWC2 (11732394_at) / Fold change /veh CLDN22 /// WWC2 (11732394_at) / RFU HLA-DPB1 (11760878_x_at) / Fold change /veh HLA-DPB1 (11760878_x_at) / RFU SPINT1 (11716480_a_at) / Fold change /veh SPINT1 (11716480_a_at) / RFU GAP43 (11754022_s_at) / Fold change /veh GAP43 (11754022_s_at) / RFU A4GNT (11735810_at) / Fold change /veh A4GNT (11735810_at) / RFU PRB3 (11715151_x_at) / Fold change /veh PRB3 (11715151_x_at) / RFU TUBB4B (11761932_at) / Fold change /veh TUBB4B (11761932_at) / RFU CAPN14 (11732068_a_at) / Fold change /veh CAPN14 (11732068_a_at) / RFU TMCC2 (11721928_a_at) / Fold change /veh TMCC2 (11721928_a_at) / RFU IRGQ (11745062_a_at) / Fold change /veh IRGQ (11745062_a_at) / RFU FAM174B (11720279_a_at) / Fold change /veh FAM174B (11720279_a_at) / RFU TMPRSS4 (11748680_a_at) / Fold change /veh TMPRSS4 (11748680_a_at) / RFU FAM212B (11763350_a_at) / Fold change /veh FAM212B (11763350_a_at) / RFU PLEKHG5 (11743358_a_at) / Fold change /veh PLEKHG5 (11743358_a_at) / RFU ZSCAN30 (11745921_a_at) / Fold change /veh ZSCAN30 (11745921_a_at) / RFU CMKLR1 (11741424_a_at) / Fold change /veh CMKLR1 (11741424_a_at) / RFU LOC101060620 /// MAPK8IP1 (11723275_at) / Fold change /veh LOC101060620 /// MAPK8IP1 (11723275_at) / RFU SPTSSB (11747773_x_at) / Fold change /veh SPTSSB (11747773_x_at) / RFU PRSS12 (11739890_at) / Fold change /veh PRSS12 (11739890_at) / RFU BIN1 (11741810_x_at) / Fold change /veh BIN1 (11741810_x_at) / RFU WNT11 (11732464_a_at) / Fold change /veh WNT11 (11732464_a_at) / RFU C10orf10 (11716521_a_at) / Fold change /veh C10orf10 (11716521_a_at) / RFU C5orf56 (11738089_at) / Fold change /veh C5orf56 (11738089_at) / RFU CYB561 (11721691_x_at) / Fold change /veh CYB561 (11721691_x_at) / RFU ANKRD19P (11752326_a_at) / Fold change /veh ANKRD19P (11752326_a_at) / RFU OR2T12 /// OR2T33 /// OR2T8 (11738714_s_at) / Fold change /veh OR2T12 /// OR2T33 /// OR2T8 (11738714_s_at) / RFU VCAN (11748164_a_at) / Fold change /veh VCAN (11748164_a_at) / RFU JSRP1 (11732532_at) / Fold change /veh JSRP1 (11732532_at) / RFU KRTAP10-11 (11738290_x_at) / Fold change /veh KRTAP10-11 (11738290_x_at) / RFU MYO3A (11730013_a_at) / Fold change /veh MYO3A (11730013_a_at) / RFU EBF3 (11725865_a_at) / Fold change /veh EBF3 (11725865_a_at) / RFU CAMK2N1 (11719241_x_at) / Fold change /veh CAMK2N1 (11719241_x_at) / RFU C5orf56 (11738088_a_at) / Fold change /veh C5orf56 (11738088_a_at) / RFU OLFML3 (11715873_a_at) / Fold change /veh OLFML3 (11715873_a_at) / RFU LOC100653217 /// NTM (11731650_a_at) / Fold change /veh LOC100653217 /// NTM (11731650_a_at) / RFU MAPK11 (11762145_a_at) / Fold change /veh MAPK11 (11762145_a_at) / RFU FIZ1 (11724087_x_at) / Fold change /veh FIZ1 (11724087_x_at) / RFU OASL (11726364_x_at) / Fold change /veh OASL (11726364_x_at) / RFU SOX15 (11748057_x_at) / Fold change /veh SOX15 (11748057_x_at) / RFU CD79A (11719716_a_at) / Fold change /veh CD79A (11719716_a_at) / RFU HIST1H1D (11736915_at) / Fold change /veh HIST1H1D (11736915_at) / RFU CASKIN2 (11723855_a_at) / Fold change /veh CASKIN2 (11723855_a_at) / RFU LOC730098 (11760151_x_at) / Fold change /veh LOC730098 (11760151_x_at) / RFU OR4N2 (11742367_at) / Fold change /veh OR4N2 (11742367_at) / RFU PRRT2 (11749266_a_at) / Fold change /veh PRRT2 (11749266_a_at) / RFU SNX32 (11753110_a_at) / Fold change /veh SNX32 (11753110_a_at) / RFU CDHR5 (11726645_a_at) / Fold change /veh CDHR5 (11726645_a_at) / RFU RCAN1 (11760418_a_at) / Fold change /veh RCAN1 (11760418_a_at) / RFU FAM167A (11723789_a_at) / Fold change /veh FAM167A (11723789_a_at) / RFU FAM26E (11764081_at) / Fold change /veh FAM26E (11764081_at) / RFU ISYNA1 (11749810_s_at) / Fold change /veh ISYNA1 (11749810_s_at) / RFU ACY1 (11761880_at) / Fold change /veh ACY1 (11761880_at) / RFU 11764098_at / Fold change /veh 11764098_at / RFU SAMD14 (11745864_x_at) / Fold change /veh SAMD14 (11745864_x_at) / RFU NPB (11741838_a_at) / Fold change /veh NPB (11741838_a_at) / RFU TMPRSS6 (11731388_a_at) / Fold change /veh TMPRSS6 (11731388_a_at) / RFU KRTAP10-2 (11738614_at) / Fold change /veh KRTAP10-2 (11738614_at) / RFU ARHGAP8 /// PRR5-ARHGAP8 (11727945_x_at) / Fold change /veh ARHGAP8 /// PRR5-ARHGAP8 (11727945_x_at) / RFU KRTAP5-7 /// NADSYN1 (11734609_at) / Fold change /veh KRTAP5-7 /// NADSYN1 (11734609_at) / RFU RASL12 (11751679_a_at) / Fold change /veh RASL12 (11751679_a_at) / RFU CDKN2B (11736163_a_at) / Fold change /veh CDKN2B (11736163_a_at) / RFU PRF1 (11729649_at) / Fold change /veh PRF1 (11729649_at) / RFU, ZNF638 /// ZNF638-IT1 / Fold change vs veh, ZNF638 /// ZNF638-IT1 / RFU, PANK3 / Fold change vs veh, PANK3 / RFU, SH3YL1 / Fold change vs veh, SH3YL1 / RFU, ZEB2 / Fold change vs veh, ZEB2 / RFU, NRIP1 / Fold change vs veh, NRIP1 / RFU, PTTG1IP / Fold change vs veh, PTTG1IP / RFU, CAPN2 / Fold change vs veh, CAPN2 / RFU, MED14 / Fold change vs veh, MED14 / RFU, SNORA58 / Fold change vs veh, SNORA58 / RFU, C1orf63 / Fold change vs veh, C1orf63 / RFU, LRRFIP1 / Fold change vs veh, LRRFIP1 / RFU, NDUFAF7 / Fold change vs veh, NDUFAF7 / RFU, SLC12A2 / Fold change vs veh, SLC12A2 / RFU, IBTK / Fold change vs veh, IBTK / RFU, ESF1 / Fold change vs veh, ESF1 / Fold change vs veh, TMEM50B / RFU, TAOK1 / Fold change vs veh, TAOK1 / RFU, ACBD3 / Fold change vs veh, ACBD3 / RFU, TMA16 / Fold change vs veh, TMA16 / RFU, RWDD3 / Fold change vs veh, RWDD3 / RFU, BCAT1 / Fold change vs veh, BCAT1 / RFU, EDEM3 / Fold change vs veh, EDEM3 / RFU, TMEM33 / Fold change vs veh, TMEM33 / RFU, WDR75 / Fold change vs veh, WDR75 / RFU, AHCTF1 / Fold change vs veh, AHCTF1 / RFU, TFRC / Fold change vs veh, TFRC / RFU, ZDHHC17 / Fold change vs veh, ZDHHC17 / RFU, NOM1 / Fold change vs veh, NOM1 / RFU, ARL8B / Fold change vs veh, ARL8B / RFU, ZBTB11 / Fold change vs veh, ZBTB11 / RFU, TAMM41 / Fold change vs veh, TAMM41 / RFU, KIAA1704 /// LOC100996395 / Fold change vs veh, KIAA1704 /// LOC100996395 / RFU, ING1 / Fold change vs veh, ING1 / RFU, TRMT61B / Fold change vs veh, TRMT61B / RFU, FUBP3 / Fold change vs veh, FUBP3 / RFU, TP53 / Fold change vs veh, TP53 / RFU, TNKS2 / Fold change vs veh, TNKS2 / RFU, ZFP14 / Fold change vs veh, ZFP14 / RFU, ACTR2 / Fold change vs veh, ACTR2 / RFU, PPP3R1 / Fold change vs veh, PPP3R1 / RFU, PIK3R1 / Fold change vs veh, PIK3R1 / RFU, HNRNPA1 / Fold change vs veh, HNRNPA1 / RFU, RNF170 / Fold change vs veh, RNF170 / RFU, ZNF28 / Fold change vs veh, ZNF28 / RFU, RNGTT / Fold change vs veh, RNGTT / RFU, OGT / Fold change vs veh, OGT / RFU, BRD1 / Fold change vs veh, BRD1 / RFU, MARS / Fold change vs veh, MARS / RFU, ZNF655 / Fold change vs veh, ZNF655 / RFU, FAHD1 / Fold change vs veh, FAHD1 / RFU, BDP1 / Fold change vs veh, BDP1 / RFU, LRRCC1 / Fold change vs veh, LRRCC1 / RFU, ARID1A / Fold change vs veh, ARID1A / RFU, ZNF146 / Fold change vs veh, ZNF146 / RFU, ZNF330 / Fold change vs veh, ZNF330 / RFU, GPN3 / Fold change vs veh, GPN3 / RFU, C9orf123 / Fold change vs veh, C9orf123 / RFU, N4BP2L2 / Fold change vs veh, N4BP2L2 / RFU, ARFIP1 / Fold change vs veh, ARFIP1 / RFU, FAM179B / Fold change vs veh, FAM179B / RFU, BCL10 / Fold change vs veh, BCL10 / RFU, UHRF1BP1L / Fold change vs veh, UHRF1BP1L / RFU, BET1 / Fold change vs veh, BET1 / RFU, CNOT2 / Fold change vs veh, CNOT2 / RFU, ZNF268 / Fold change vs veh, ZNF268 / Fold change vs veh, ZNF507 / RFU, DGCR2 / Fold change vs veh, DGCR2 / RFU, WDSUB1 / Fold change vs veh, WDSUB1 / Fold change vs veh, HSP90B1 /// MIR3652 / RFU, ADSS / Fold change vs veh, ADSS / RFU, GK / Fold change vs veh, GK / RFU, ZNF148 / Fold change vs veh, ZNF148 / RFU, TAF9 / Fold change vs veh, TAF9 / RFU, SLC1A5 / Fold change vs veh, SLC1A5 / RFU, SLMO2 / Fold change vs veh, SLMO2 / RFU, ABCC4 / Fold change vs veh, ABCC4 / RFU, LOC101060439 /// RAP1B / Fold change vs veh, LOC101060439 /// RAP1B / RFU, RFX7 / Fold change vs veh, RFX7 / RFU, GTPBP10 / Fold change vs veh, GTPBP10 / RFU, CNEP1R1 / Fold change vs veh, CNEP1R1 / RFU, BIVM-ERCC5 /// ERCC5 / Fold change vs veh, BIVM-ERCC5 /// ERCC5 / RFU, ILF3 / Fold change vs veh, ILF3 / RFU 11762660_at / Fold change /veh 11762660_at / RFU VCAN (11757783_s_at) / Fold change /veh VCAN (11757783_s_at) / RFU DDX43 (11728927_at) / Fold change /veh DDX43 (11728927_at) / RFU KRT8 (11758188_x_at) / Fold change /veh KRT8 (11758188_x_at) / RFU NKD1 (11759106_at) / Fold change /veh NKD1 (11759106_at) / RFU SRD5A1 (11742802_a_at) / Fold change /veh SRD5A1 (11742802_a_at) / RFU TPSAB1 /// TPSB2 (11721975_s_at) / Fold change /veh TPSAB1 /// TPSB2 (11721975_s_at) / RFU GSTM3 (11746129_a_at) / Fold change /veh GSTM3 (11746129_a_at) / RFU IL23R (11737362_x_at) / Fold change /veh IL23R (11737362_x_at) / RFU TMEM51 (11727254_a_at) / Fold change /veh TMEM51 (11727254_a_at) / RFU PIWIL2 (11732686_x_at) / Fold change /veh PIWIL2 (11732686_x_at) / RFU ORM1 (11744905_x_at) / Fold change /veh ORM1 (11744905_x_at) / RFU CCDC152 (11743942_at) / Fold change /veh CCDC152 (11743942_at) / RFU ECM1 (11717891_a_at) / Fold change /veh ECM1 (11717891_a_at) / RFU IL23R (11748794_a_at) / Fold change /veh IL23R (11748794_a_at) / RFU TNFAIP8L3 (11732012_x_at) / Fold change /veh TNFAIP8L3 (11732012_x_at) / RFU MBOAT4 (11741988_at) / Fold change /veh MBOAT4 (11741988_at) / RFU 11764193_at / Fold change /veh 11764193_at / RFU TMEM53 (11763286_at) / Fold change /veh TMEM53 (11763286_at) / RFU MAGEB2 (11727129_at) / Fold change /veh MAGEB2 (11727129_at) / RFU TMEM200A (11744735_a_at) / Fold change /veh TMEM200A (11744735_a_at) / RFU CCDC152 (11751479_a_at) / Fold change /veh CCDC152 (11751479_a_at) / RFU FAM211A (11726209_a_at) / Fold change /veh FAM211A (11726209_a_at) / RFU RGS16 (11746705_a_at) / Fold change /veh RGS16 (11746705_a_at) / RFU VCAN (11755009_s_at) / Fold change /veh VCAN (11755009_s_at) / RFU RHOB (11743442_s_at) / Fold change /veh RHOB (11743442_s_at) / RFU RGS16 (11720943_a_at) / Fold change /veh RGS16 (11720943_a_at) / RFU RGS16 (11720944_at) / Fold change /veh RGS16 (11720944_at) / RFU, VPS4B / Fold change vs veh, VPS4B / RFU, CREB1 / Fold change vs veh, CREB1 / RFU, DNAJC13 / Fold change vs veh, DNAJC13 / RFU, GNAQ / Fold change vs veh, GNAQ / RFU, CDK5R1 / Fold change vs veh, CDK5R1 / RFU, ZRANB3 / Fold change vs veh, ZRANB3 / RFU, CUL4A / Fold change vs veh, CUL4A / RFU, CCNY / Fold change vs veh, CCNY / RFU, UFL1 / Fold change vs veh, UFL1 / RFU, COG3 / Fold change vs veh, COG3 / RFU, DIAPH2 / Fold change vs veh, DIAPH2 / RFU, SKA2 / Fold change vs veh, SKA2 / RFU, AFF3 / Fold change vs veh, AFF3 / RFU, LMF1 / Fold change vs veh, LMF1 / RFU, IPO11 / Fold change vs veh, IPO11 / RFU, DFFB / Fold change vs veh, DFFB / RFU, FOXP1 / Fold change vs veh, FOXP1 / RFU, CARD8 / Fold change vs veh, CARD8 / RFU, STRN3 / Fold change vs veh, STRN3 / RFU, ADK / Fold change vs veh, ADK / RFU, RASSF2 / Fold change vs veh, RASSF2 / RFU, WIPF1 / Fold change vs veh, WIPF1 / RFU, LARP1B / Fold change vs veh, LARP1B / RFU, RASA1 / Fold change vs veh, RASA1 / RFU, RB1 / Fold change vs veh, RB1 / RFU, PPFIA1 / Fold change vs veh, PPFIA1 / RFU, MAT2A / Fold change vs veh, MAT2A / RFU, CCT5 / Fold change vs veh, CCT5 / RFU, WDR92 / Fold change vs veh, WDR92 / RFU, CUX1 / Fold change vs veh, CUX1 / RFU, TTC7A / Fold change vs veh, TTC7A / RFU, TMEM135 / Fold change vs veh, TMEM135 / RFU, DEPTOR / Fold change vs veh, DEPTOR / RFU, CPM / Fold change vs veh, CPM / RFU, DNAJB6 / Fold change vs veh, DNAJB6 / RFU, CACNA2D3 / Fold change vs veh, CACNA2D3 / RFU, DTX4 / Fold change vs veh, DTX4 / RFU, TFCP2 / Fold change vs veh, TFCP2 / RFU, GMCL1 /// GMCL1P1 / Fold change vs veh, GMCL1 /// GMCL1P1 / RFU, AEBP2 / Fold change vs veh, AEBP2 / RFU, SNHG1 /// SNORD22 /// SNORD25 /// SNORD26 /// SNORD27 /// SNORD28 /// SNORD29 /// SNORD31 / Fold change vs veh, SNHG1 /// SNORD22 /// SNORD25 /// SNORD26 /// SNORD27 /// SNORD28 /// SNORD29 /// SNORD31 / Fold change (Aza/veh), C12orf56 (ProbeSet 11735607_a_at) / Fold change (ACY-1035/veh), C12orf56 (ProbeSet 11735607_a_at) / Fold change (Aza/veh), FGFR1OP (ProbeSet 11751329_s_at) / Fold change (ACY-1035/veh), FGFR1OP (ProbeSet 11751329_s_at) / Fold change (Aza/veh), VPS36 (ProbeSet 11739960_a_at) / Fold change (ACY-1035/veh), VPS36 (ProbeSet 11739960_a_at) / RFU SYPL1 (11715823_x_at) / Fold change /veh SYPL1 (11715823_x_at) / RFU IGFBP7 (11715501_s_at) / Fold change /veh IGFBP7 (11715501_s_at) / RFU REEP3 (11722064_at) / Fold change /veh REEP3 (11722064_at) / RFU IGLL1 (11728026_x_at) / Fold change /veh IGLL1 (11728026_x_at): dose or concentration left out as unconfirmed
# Details: MV-4-11 cells, 48 hours
smiles,measurement,value
Nc1ccc(-c2cccs2)cc1NC(=O)c1ccc2c(c1)cc(C1CC1)n2CCN1CCOCC1 [ACY-1035],Fold change /veh PIWIL2 (11732686_x_at),0.84
